Paper PMC12126525, “Mechanism of ATP hydrolysis in the Hsp70 BiP nucleotide-binding domain” (Nature Communications, 2025)
Several values for one entry are separate records, joined by “and”; a condition that tells them apart may be missing. Equal entries are not always repeated. Where two headings read alike, the source gives them in different places. One block for each compound: values may come before it.

Legend:
BiP NBD [1] = target: T1, BiP NBD (Homo sapiens, UniProt P11021); experiment: NMR titration (equilibrium methyl-TROSY) with phosphate; assay type: binding; design: His6 (N, cleaved yes); made in house; host or cells: E. coli BL21-(DE3)-Lemo, pET28a vector; conditions: for Average IMABAADP.pi/IMABAADP: Supplementary Fig 12 f
T1 sequence (P11021 19-406): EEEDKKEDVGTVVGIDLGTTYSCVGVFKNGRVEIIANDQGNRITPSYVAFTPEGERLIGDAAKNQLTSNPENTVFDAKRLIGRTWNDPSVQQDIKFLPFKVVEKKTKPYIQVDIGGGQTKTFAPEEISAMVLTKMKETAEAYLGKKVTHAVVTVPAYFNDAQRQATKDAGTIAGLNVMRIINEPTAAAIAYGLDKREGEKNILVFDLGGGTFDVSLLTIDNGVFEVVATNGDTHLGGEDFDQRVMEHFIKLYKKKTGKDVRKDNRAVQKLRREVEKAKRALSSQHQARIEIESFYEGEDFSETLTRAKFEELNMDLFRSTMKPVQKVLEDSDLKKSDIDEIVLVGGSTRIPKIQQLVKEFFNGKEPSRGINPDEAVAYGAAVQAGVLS

BiP NBD [2] = target: T1, BiP NBD; conditions: for tADP: Supplementary Fig 16b
Protocol: We next wanted to compare our determined kinetic rates of ADP dissociation, koff2 and koff5 , with a standard assay in the Hsp70 field that measures ADP lifetimes by ADP displacement.
The dissociation rate constants (koff) were determined by fitting the data to a one phase exponential function using a python script. […]
The red line corresponds to the mono-exponential fit of the data. […]
from 0.001 to 10 mM, in the absence of Pi (pink circles) and with 0.5 mM Pi (blue circles). Data points represent the mean for three independent experiments and the error bar represents the standard deviation. The half maximal inhibitory concentration (IC50) of Ca was calculated from three

BiP NBD [3] = target: T1, BiP NBD; experiment: In-cyclo NMR in the presence of 3.3 mM calcium; assay type: biochemical; design: His6 (N, cleaved yes); made in house; host or cells: E. coli BL21-(DE3)-Lemo, pET28a vector
BiP NBD [4] = target: T1, BiP NBD; experiment: NMR without ATP regeneration at variable ADP:ATP ratio with 3.3 mM calcium, with and without E2; assay type: biochemical; design: His6 (N, cleaved yes); made in house; host or cells: E. coli BL21-(DE3)-Lemo, pET28a vector; conditions: replicates
Text: Finally, we wanted to explore the effect of calcium on conditions with variable ADP concentration that represent the conditions in the ER. We thus exploited our modular experimental setup in the absence of the ATP regeneration system, with and without phosphate, to generate conditions where the ADP concentration increases (Supplementary Fig. 18). We determined the ATP hydrolysis rate and the populations of the different states for different ADP:ATP ratios and phosphate concentrations. We observed NMR signals corresponding to the NBD·ADP·Ca^2+-bound state, but not the NBD·Ca^2+-bound state, with population and occupancy time increasing with the ADP concentration (Fig. 5e). When free phosphate was allowed to accumulate in parallel, the occupancy time of the NBD·ADP·Ca^2+ state decreased, showing that the phosphate prevents the calcium from binding (Fig. 5f).
Supplementary Figure 18. NBD·ADP·Ca2+ forms as an off-cycle pathway state. a, 2D [13C,1H]-TROSY spectrum of methyl-labeled NBD in the presence of ADP:ATP 1:3, 3.3 mM calcium ([Mg2+]/[Ca2+]=3) and E2 active. State- and sequence-specific resonance assignments are indicated for the ADP·Ca2+- bound state (dark-pink), ADP-bound (light blue), ADP·Pi-bound (dark blue) and ATP-bound (red) states. b, Selected sections of 2D [13C,1H]-methyl-TROSY spectra of residue Val50cg1 in the presence of ADP:ATP 1:3 (pink) and with 3.3 mM calcium ([Mg2+]/[Ca2+]=3) (black) compared to in-cyclo no calcium (pink) and the equilibrium experiments of NBD with 3.3 mM calcium ([Mg2+]/[Ca2+]=3) (ligh-pink), NBD with 1 mM ADP and 3.3 mM calcium ([Mg2+]/[Ca2+]=3) (dark-pink). c,d, same as in (a,b) for the system in the absence of E2, i.e the phosphate concentration increases with ATP hydrolysis.

Kd (BiP NBD [1]; 4MABA: Pi binding to NBD·MABA-ADP, 1 mM MABA-ADP): 270 ± 40 µM
Kd (BiP NBD [1]; KD3: Pi binding to apo NBD, 100 μM BiP NBD, 25 °C): 310 ± 40 µM
Kd (BiP NBD [1]; KD4: Pi binding to NBD·ADP, 1 mM ADP): 280 ± 50 µM
Average IMABAADP.pi/IMABAADP (BiP NBD [1]; Pi 0.15 mM): 0.3154
Average IMABAADP.pi/IMABAADP (BiP NBD [1]; Pi 0.25 mM): 0.5289
Average IMABAADP.pi/IMABAADP (BiP NBD [1]; Pi 0.5 mM): 0.6366
Structure (SMILES): O=P(O)(O)O [Pi]

tADP (BiP NBD [2]; Calcium 0.1 μM, second series ([Pi] 0.5 mM)): 52.28 s
tADP (BiP NBD [2]; Calcium 0.1 μM, series without added Pi): 15.3 s
tADP (BiP NBD [2]; Calcium 0.5 μM, second series ([Pi] 0.5 mM)): 45.66 s
tADP (BiP NBD [2]; Calcium 0.5 μM, series without added Pi): 12.1 s
tADP (BiP NBD [2]; Calcium 1 μM, second series ([Pi] 0.5 mM)): 50.78 s
tADP (BiP NBD [2]; Calcium 1 μM, series without added Pi): 12.7 s
tADP (BiP NBD [2]; Calcium 5 μM, second series ([Pi] 0.5 mM)): 54.19 s
tADP (BiP NBD [2]; Calcium 5 μM, series without added Pi): 15.7 s
tADP (BiP NBD [2]; Calcium 10 μM, second series ([Pi] 0.5 mM)): 50.03 s
tADP (BiP NBD [2]; Calcium 10 μM, series without added Pi): 12.2 s
tADP (BiP NBD [2]; Calcium 25 μM, series without added Pi): 16.2 s
tADP (BiP NBD [2]; Calcium 50 μM, second series ([Pi] 0.5 mM)): 54.42 s
tADP (BiP NBD [2]; Calcium 50 μM, series without added Pi): 16.2 s
tADP (BiP NBD [2]; Calcium 75 μM, series without added Pi): 16.9 s
tADP (BiP NBD [2]; Calcium 100 μM, second series ([Pi] 0.5 mM)): 49.18 s
tADP (BiP NBD [2]; Calcium 100 μM, series without added Pi): 18.0 s
tADP (BiP NBD [2]; Calcium 125 μM, series without added Pi): 19.5 s
tADP (BiP NBD [2]; Calcium 150 μM, series without added Pi): 22.4 s
tADP (BiP NBD [2]; Calcium 175 μM, series without added Pi): 21.2 s
tADP (BiP NBD [2]; Calcium 200 μM, series without added Pi): 30.8 s
tADP (BiP NBD [2]; Calcium 300 μM, series without added Pi): 33.0 s
tADP (BiP NBD [2]; Calcium 400 μM, series without added Pi): 36.0 s
tADP (BiP NBD [2]; Calcium 500 μM, second series ([Pi] 0.5 mM)): 44.74 s
tADP (BiP NBD [2]; Calcium 500 μM, series without added Pi): 38.8 s
tADP (BiP NBD [2]; Calcium 1000 μM, second series ([Pi] 0.5 mM)): 48.65 s
tADP (BiP NBD [2]; Calcium 1000 μM, series without added Pi): 39.9 s
tADP (BiP NBD [2]; Calcium 5000 μM, second series ([Pi] 0.5 mM)): 49.79 s
tADP (BiP NBD [2]; Calcium 5000 μM, series without added Pi): 41.9 s
IC50 (BiP NBD [2]; read-out: IC50 (ADP mean life as a function of calcium concentration), MABA-ADP release, no Pi, fixed 10 mM magnesium, calcium 0.001 to 10 mM): 212 ± 7 µM
molecular hydrolysis rate in-cyclo khydr (BiP NBD [3]; 3.3 mM calcium, 10 mM magnesium): 1.43 ± 0.06 min⁻¹
cycle timing (BiP NBD [3]; Fig 5d source data, 3.3 mM calcium: replicates [1]-[3] and average): 40.4 s and 41.4 s and 43.7 s
cycle (BiP NBD [4]; Fig 5e: with E2, 3.3 mM calcium, ADP:ATP 1:2): 151.31 s and 139.92 s and 133.95 s
cycle (BiP NBD [4]; Fig 5e: with E2, 3.3 mM calcium, ADP:ATP 1:3): 107.58 s and 118.91 s and 122.37 s
cycle (BiP NBD [4]; Fig 5e: with E2, 3.3 mM calcium, ADP:ATP 1:4): 78.87 s and 92.84 s and 108.72 s
cycle (BiP NBD [4]; Fig 5e: with E2, 3.3 mM calcium, ADP:ATP 1:5): 55.19 s and 43.78 s and 57.90 s
cycle (BiP NBD [4]; Fig 5f: without E2, 3.3 mM calcium, ADP:ATP 1:2): 191.98 s and 221.37 s and 190.59 s
cycle (BiP NBD [4]; Fig 5f: without E2, 3.3 mM calcium, ADP:ATP 1:3): 130.46 s and 156.85 s and 135.76 s
cycle (BiP NBD [4]; Fig 5f: without E2, 3.3 mM calcium, ADP:ATP 1:4): 97.52 s and 113.75 s and 85.45 s
cycle (BiP NBD [4]; Fig 5f: without E2, 3.3 mM calcium, ADP:ATP 1:5): 72.26 s and 65.96 s and 73.59 s
Structure (SMILES): [Ca+2] [calcium]
lifetime of bound ADP·Pi versus calcium concentration (BiP NBD [2]; in the presence of 0.5 mM phosphate): completely independent of the calcium concentration
khydr (BiP NBD [3]; Fig 5a source data, 3.3 mM calcium: replicates [1]-[3] and average): 1.484 min⁻¹ and 1.451 min⁻¹ and 1.372 min⁻¹
